Reference: paper PMC10854894, “A New Benzo[6,7]oxepino[3,2-b] Pyridine Derivative Induces Apoptosis in Canine Mammary Cancer Cell Lines” (Animals : an Open Access Journal from MDPI, 2024)

Legend:
[1] = test system: CMGT071020 cells; experiment: Immunohistochemistry of vimentin and cytokeratin, Allred score; format: cell-based, canine; settings: CMGT071020, 0-200 µM, 48 h, treatment vs control
Description: (§1) The cells were cultured in a T-25 cell culture flask (SPL life science, Gyeonggi-do, Republic of Korea) at a density of 2 × 10^5 cells/well and allowed to incubate for 24 h until they reached 60–70% confluence. They were subsequently treated with MPOBA at varying concentrations from 0 to 200 µM for 48 h. After treatment, cells were harvested using TrypLE and subjected to centrifugation at 1200 rpm for 5 min to obtain cell pellets. Then, the supernatant was replaced with 10% formalin, and the cell pellets were fixed overnight. The fixed cell pellets were embedded in paraffin blocks and sectioned with a thickness of 3 μm. These slide sections were then subjected to the deparaffinization and rehydration processes. For antigen retrieval, a heat-induced method was adopted, utilizing a vegetable steamer in a citrate buffer (pH = 6) at 90–100 °C for 45 min, followed by a cooling period of 30 min. After these preparatory steps, slides were mounted on cover plates within a Sequenza slide rack (Thermo Scientific, Waltham, MA, USA), void of air bubbles, and filled with Tris-buffered saline (TBS) (pH = 7.6). The immunohistochemical detection employed a Novolink™ Polymer Detection Kit (Leica Biosystems, Newcastle, UK) according to the manufacturer’s instructions. This began with the inhibition of endogenous peroxidase activity with a 150 μL peroxidase block at room temperature for 5 min, followed by washing with TBS three times for 3 min each. Subsequently, a 150 μL protein block was applied, incubated for 5 min, and washed three times with TBS for 3 min. Primary antibodies, including a vimentin (VT) mouse anti-human monoclonal antibody (Clone V9, ready-to-use kit, Leica Biosystems, Newcastle, UK) and a multi-cytokeratin (CK) mouse antibody (Clone AE1/AE3, ready-to-use kit, Leica Biosystems, Newcastle, UK), were incubated at 37 °C for 1 h. […]
(§2) A quantitative evaluation of the stained slides was performed utilizing the Allred scoring method and QuPath bioimaging software version 0.4.4 [48] to mitigate potential biases. […] The positive cells were systematically detected using the “positive cell detection” command in the analyze menu. The Allred score was calculated according to the quantity of marked cells and the intensity of the staining, as shown in Table S1. […] The scores and criteria used to quantify the labeled cells were 0, no labeling; 1, labeling in <1% of cells; 2, labeling in 1–10% of cells; 3, labeling in 11–33% of cells; 4, labeling in 34–66% of cells; and 5, labeling in 67–100% of cells. […] The staining intensity was determined visually. The sum of these criteria for each sample determined the final score.

[2] = test system: REM134 cells; experiment: as above; format: cell-based, canine; settings: REM134, 0-200 µM, 48 h, treatment vs control
Description: as §1, §2

Cc1ncccc1Oc1ccccc1C=O [MPOBA, 2-((2-methylpyridin-3-yl)oxy)benzaldehyde]
no statistically significant difference: cytokeratin (CK) expression, Allred score [1] | vimentin (VT) expression, Allred score [1] | cytokeratin (CK) expression, Allred score [2] | vimentin (VT) expression, Allred score [2]
